Results published in publication PMC4309955 (Scientific Reports, 2015).

What was measured:
[1] = molecular target: T1, human AT1R (angiotensin II type 1 receptor) (Homo sapiens, UniProt P30556); experiment: inhibition of AngII-induced beta-arrestin activation, cell impedance; type: cell-based
T1 sequence (P30556 1-359): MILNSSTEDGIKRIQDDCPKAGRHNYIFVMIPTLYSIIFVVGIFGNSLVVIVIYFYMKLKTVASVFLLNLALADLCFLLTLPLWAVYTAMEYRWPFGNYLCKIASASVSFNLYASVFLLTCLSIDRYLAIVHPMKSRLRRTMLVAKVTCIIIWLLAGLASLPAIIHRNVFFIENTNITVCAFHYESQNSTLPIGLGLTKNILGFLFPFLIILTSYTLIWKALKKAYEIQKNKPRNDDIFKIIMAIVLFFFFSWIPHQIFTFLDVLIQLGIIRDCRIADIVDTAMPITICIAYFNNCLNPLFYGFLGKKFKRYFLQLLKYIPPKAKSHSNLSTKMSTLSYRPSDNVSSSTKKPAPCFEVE

[2] = molecular target: T1, human AT1R (angiotensin II type 1 receptor); experiment: inhibition of AngII-induced G protein activation, cell impedance; type: cell-based

**Q.** For `CCOc1nc2cccc(C(=O)O)c2n1Cc1ccc(-c2ccccc2-c2nnn[nH]2)cc1` [Candesartan], which IC50 [1] is on record?
**A.** 0.7 nM

**Q.** What about the IC50 [2] of the same compound?
**A.** 2 nM

**Q.** With `CCCCc1ncc(/C=C(\Cc2cccs2)C(=O)O)n1Cc1ccc(C(=O)O)cc1` [Eprosartan] as the compound, how does the IC50 [1] read?
**A.** 7.5 nM

**Q.** And the IC50 [2]?
**A.** 4.7 nM

**Q.** Which results are given for `CCOc1nc2cccc(C(=O)O)c2n1Cc1ccc(-c2ccccc2-c2noc(=O)[nH]2)cc1` [Azilsartan]?
**A.** IC50 [1]: 1.6 nM; IC50 [2]: 1.6 nM

**Q.** For `CCCc1nc(C(C)(C)O)c(C(=O)O)n1Cc1ccc(-c2ccccc2-c2nnn[nH]2)cc1` [Olmesartan], which IC50 [1] is on record?
**A.** 20.4 nM

**Q.** What about the IC50 [2] of the same compound?
**A.** 14.5 nM
